In patent publication US11844795B2, “Combination therapy for cancer treatment” (Ipsen Biopharm Ltd., priority 2015, dated 2023):
Read-outs that look alike come from different tables or passages of the source.

Assays:
HCC1954 = test: Cell survival (CellTiter-Glo) after SN-38 and/or PARP inhibitor; type: cell-based; details: for IC50: Homo sapiens
Protocol: (§1) Cells were plated at 1000 cells/well and then incubated for 24 hours. […] The plates were then allowed to incubate for 72 hours period. After the 72 hour incubation period the media was removed and cell viability was determined using the CellTiter-Glo® cell viability assay (Promega, Madison Wis.) according to the product instructions.

SUM159PT = test: as above; type: cell-based; details: for IC50: Homo sapiens, SUM-159-PT
Protocol: as §1

HCC38 = test: as above; type: cell-based; details: for IC50: Homo sapiens
Protocol: as §1

BT20 = test: as above; type: cell-based; details: for IC50: Homo sapiens
Protocol: as §1

BT549 = test: as above; type: cell-based; details: BT549, single agent
Protocol: as §1

SUM149PT = test: as above; type: cell-based
Protocol: as §1

[1] = tested on: NCI-H1048 small cell lung cancer cells; test: % cell number over time, SN-38 with PARP inhibitors; type: cell-based; details: SN-38 at 2 nM; NCI-H1048 SCLC cells
[2] = tested on: DMS-114 small cell lung cancer cells; test: as above; type: cell-based; details: SN-38 at 2 nM; DMS-114 SCLC cells
[3] = tested on: CFPAC-1 pancreatic cancer cells; test: as above; type: cell-based; details: SN-38 at 2 nM
[4] = tested on: small cell lung cancer (SCLC), pancreatic cancer and breast cancer cell lines; test: Growth inhibition, SN-38 with PARP inhibitors; type: cell-based; details: for growth inhibition of the cancer cells in combination with SN-38: 2 nM SN-38
PAR = details: Table 2B, unit inferred; cited from earlier work
cancer cells = test: Active range based on XTC008
HT-29 = test: In vitro SN-38 effect on cell line (GI50); type: cell-based; details: HT-29, in vitro
HCC1806 = test: Cell survival (CellTiter-Glo) after SN-38 and/or PARP inhibitor; type: cell-based; details: Exp. 1, single agent
Protocol: as §1

SKBR3 = test: as above; type: cell-based; details: Exp. 4, single agent
Protocol: as §1

HCC70 = test: as above; type: cell-based; details: Exp. 2, single agent
Protocol: as §1

HCC1187 = test: as above; type: cell-based; details: for IC50 log10 (μM) / Maximum Kill Percent: HCC1187, single agent
Protocol: as §1

human plasma proteins = details: cited from earlier work
[5] = tested on: HT-29 colorectal cancer (CRC) tumor xenograft; test: Tumor SN-38 and tumor response in HT-29 xenograft-bearing mice; type: in vivo
Protocol: The duration of tumor exposure to the topoisomerase 1 inhibitor SN-38 above a threshold minimum concentration (e.g., 120 nM) correlated with antitumor activity of the liposomal irinotecan. […] For example, FIG. 13B depicts tumor content of SN-38 in multiple murine cervical cancer models. […] Levels of SN-38 of 120 nM were identified as the SN-38 tumor concentration required to yield tumor response.

[6] = tested on: C33A cervical cancer xenograft; test: C33A cervical cancer xenograft model
PARG = PARG (Homo sapiens, UniProt Q86W56); details: cited from earlier work
Sequence of PARG (Q86W56 whole entry, species assumed): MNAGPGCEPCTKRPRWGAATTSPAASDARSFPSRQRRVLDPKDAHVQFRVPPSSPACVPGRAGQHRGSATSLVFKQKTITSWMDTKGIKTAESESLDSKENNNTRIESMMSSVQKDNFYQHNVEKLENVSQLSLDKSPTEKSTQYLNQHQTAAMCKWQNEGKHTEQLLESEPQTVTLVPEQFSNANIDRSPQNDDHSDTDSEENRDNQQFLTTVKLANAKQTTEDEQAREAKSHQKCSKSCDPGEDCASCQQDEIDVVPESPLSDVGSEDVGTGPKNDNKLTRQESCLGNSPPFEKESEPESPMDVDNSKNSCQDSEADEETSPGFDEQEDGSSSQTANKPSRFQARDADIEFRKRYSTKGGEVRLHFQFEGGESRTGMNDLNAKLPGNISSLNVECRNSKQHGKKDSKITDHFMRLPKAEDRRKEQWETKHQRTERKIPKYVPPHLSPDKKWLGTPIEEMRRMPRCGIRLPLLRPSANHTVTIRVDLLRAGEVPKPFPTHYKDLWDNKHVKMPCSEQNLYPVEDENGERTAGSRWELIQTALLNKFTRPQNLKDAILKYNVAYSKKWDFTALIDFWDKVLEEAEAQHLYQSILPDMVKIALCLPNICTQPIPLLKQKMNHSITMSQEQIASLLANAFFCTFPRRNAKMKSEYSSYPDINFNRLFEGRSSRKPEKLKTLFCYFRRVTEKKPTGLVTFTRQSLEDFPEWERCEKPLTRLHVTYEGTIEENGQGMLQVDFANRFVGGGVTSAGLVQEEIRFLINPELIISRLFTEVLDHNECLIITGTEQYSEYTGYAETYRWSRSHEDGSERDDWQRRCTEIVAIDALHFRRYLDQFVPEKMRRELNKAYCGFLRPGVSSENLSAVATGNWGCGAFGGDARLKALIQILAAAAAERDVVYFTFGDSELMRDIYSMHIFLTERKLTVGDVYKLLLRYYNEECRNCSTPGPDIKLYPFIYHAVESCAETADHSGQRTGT

SIRT2 = SIRT2 (Homo sapiens, UniProt Q8IXJ6); details: cited from earlier work
Sequence of SIRT2 (Q8IXJ6 whole entry, species assumed): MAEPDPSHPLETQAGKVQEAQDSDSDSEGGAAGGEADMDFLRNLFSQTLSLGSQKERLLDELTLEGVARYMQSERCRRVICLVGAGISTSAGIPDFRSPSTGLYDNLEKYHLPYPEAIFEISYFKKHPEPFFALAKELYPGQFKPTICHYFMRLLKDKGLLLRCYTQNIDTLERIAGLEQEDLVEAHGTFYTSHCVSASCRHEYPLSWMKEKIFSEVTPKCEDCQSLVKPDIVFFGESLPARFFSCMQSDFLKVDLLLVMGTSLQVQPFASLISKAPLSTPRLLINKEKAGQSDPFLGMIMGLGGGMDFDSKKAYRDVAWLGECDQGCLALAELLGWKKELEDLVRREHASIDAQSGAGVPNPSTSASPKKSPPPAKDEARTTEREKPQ

[7] = tested on: MS751 cervical cancer xenograft; test: MS751 cervical cancer xenograft model; details: MM-398 5 mg/kg weekly Day 1; veliparib 50 mg/kg orally Days 4-6; FIG. 7A

With `CNCc1ccc(-c2[nH]c3cc(F)cc4c3c2CCNC4=O)cc1` [Rucaparib] the “Maximum Kill Percent” value (HCC1954; HCC1954, Exp. 3, single agent) was 100%, the IC50 (HCC1954; HCC1954, Exp. 3, single agent, read-out: IC50 log10 (converted)) was 39.8 µM and the IC50 (SUM159PT; SUM159PT, Exp. 3, single agent, read-out: IC50 log10 (converted)) was 0.851 µM. For the same compound, the “Maximum Kill Percent” value (SUM159PT; SUM159PT, Exp. 3, single agent) was 97%, the “Maximum Kill Percent” value (HCC38; HCC38, Exp. 3, single agent) was 87% and the IC50 (HCC38; HCC38, Exp. 3, single agent, read-out: IC50 log10 (converted)) was 0.851 µM. For the same compound, the “Maximum Kill Percent” value (BT20; BT20, Exp. 3, single agent) was 100%, the IC50 (BT20; BT-20, BT20, Exp. 3, single agent, read-out: IC50 log10 (converted)) was 18.6 µM and the “Maximum Kill Percent” value (BT549; Exp. 3) was 100%. The IC50 (BT549; Homo sapiens, BT-549, Exp. 3, read-out: IC50 log10 (converted)) was 56.2 µM, the “Maximum Kill Percent” value (SUM149PT; Exp. 3, single agent) was 99% and the IC50 (SUM149PT; Homo sapiens, Exp. 3, single agent, read-out: IC50 log10 (converted)) was 47.9 µM. For the same compound, the Estimated tumor range (Estimated tumor range) was <6000 nM, the “sensitivity of cells to combination with SN-38” value [1] was “very sensitive” and the “effect of combination with SN-38” value [2] was “Additive/synergistic effects”. The “effect of combination with SN-38” value [3] was “Additive/synergistic effects”, the “growth inhibition of the cancer cells in combination with SN-38” value [4] was “additive/synergistic growth inhibition” and the EC50 (PAR) was 0.0047 µM. The “Active Range based on XTC008” value (cancer cells; (Panc)) was 1 to 100 nM.
With `CCc1c2c(nc3ccc(O)cc13)-c1cc3c(c(=O)n1C2)COC(=O)[C@]3(O)CC` [SN-38] the GI50 (HT-29) was ~0.06 µM, the “IC50 log10 (μM)” value (HCC1806) was −2.08 log10 (μM) and the “Maximum Kill Percent” value (HCC1806) was 93%. The “IC50 log10 (μM)” value (HCC1954; HCC1954, Exp. 3, single agent) was −0.97 log10 (μM), the “Maximum Kill Percent” value (HCC1954; HCC1954, Exp. 3, single agent) was 94% and the “IC50 log10 (μM)” value (HCC1954; HCC1954, Exp. 4, single agent) was −0.65 log10 (μM). For the same compound, the “Maximum Kill Percent” value (HCC1954; HCC1954, Exp. 4, single agent) was 100%, the “IC50 log10 (μM)” value (SUM159PT; SUM159PT, Exp. 1, single agent) was −2.35 log10 (μM) and the “Maximum Kill Percent” value (SUM159PT; SUM159PT, Exp. 1, single agent) was 97%. For the same compound, the “IC50 log10 (μM)” value (SUM159PT; SUM159PT, Exp. 2, single agent) was −2.39 log10 (μM), the “Maximum Kill Percent” value (SUM159PT; SUM159PT, Exp. 2, single agent) was 97% and the “IC50 log10 (μM)” value (SUM159PT; SUM159PT, Exp. 3, single agent) was −2.66 log10 (μM). The “Maximum Kill Percent” value (SUM159PT; SUM159PT, Exp. 3, single agent) was 99%, the “IC50 log10 (μM)” value (SUM159PT; SUM159PT, Exp. 4, single agent) was −2.33 log10 (μM) and the “Maximum Kill Percent” value (SUM159PT; SUM159PT, Exp. 4, single agent) was 96%. For the same compound, the “IC50 log10 (μM)” value (SKBR3) was −1.38 log10 (μM), the “Maximum Kill Percent” value (SKBR3) was 88% and the “IC50 log10 (μM)” value (HCC70) was −0.07 log10 (μM). The “Maximum Kill Percent” value (HCC70) was 97%, the “IC50 log10 (μM)” value (HCC38; HCC38, Exp. 1, single agent) was −2.80 log10 (μM) and the “Maximum Kill Percent” value (HCC38; HCC38, Exp. 1, single agent) was 96%. The “IC50 log10 (μM)” value (HCC38; HCC38, Exp. 3, single agent) was −2.89 log10 (μM), the “Maximum Kill Percent” value (HCC38; HCC38, Exp. 3, single agent) was 92% and the “IC50 log10 (μM)” value (HCC38; HCC38, Exp. 4, single agent) was −2.75 log10 (μM). For the same compound, the “Maximum Kill Percent” value (HCC38; HCC38, Exp. 4, single agent) was 92%, the “IC50 log10 (μM)” value (BT20; BT20, Exp. 1, single agent) was −0.18 log10 (μM) and the “Maximum Kill Percent” value (BT20; BT20, Exp. 1, single agent) was 100%. The “IC50 log10 (μM)” value (BT20; BT20, Exp. 2, single agent) was −0.69 log10 (μM), the “Maximum Kill Percent” value (BT20; BT20, Exp. 2, single agent) was 100% and the “IC50 log10 (μM)” value (BT20; BT20, Exp. 3, single agent) was −0.37 log10 (μM). The “Maximum Kill Percent” value (BT20; BT20, Exp. 3, single agent) was 100%, the “IC50 log10 (μM)” value (BT20; BT20, Exp. 4, single agent) was −0.24 log10 (μM) and the “Maximum Kill Percent” value (BT20; BT20, Exp. 4, single agent) was 100%. For the same compound, the “IC50 log10 (μM)” value (BT549; Exp. 1) was −0.10 log10 (μM), the “Maximum Kill Percent” value (BT549; Exp. 1) was 95% and the “IC50 log10 (μM)” value (BT549; Exp. 2) was −0.04 log10 (μM). The “Maximum Kill Percent” value (BT549; Exp. 2) was 93%, the “IC50 log10 (μM)” value (BT549; Exp. 3) was −0.05 log10 (μM) and the “Maximum Kill Percent” value (BT549; Exp. 3) was 94%. For the same compound, the “IC50 log10 (μM)” value (HCC1187; Exp. 1) was −0.68 log10 (μM), the “Maximum Kill Percent” value (HCC1187; Exp. 1) was 90% and the “IC50 log10 (μM)” value (HCC1187; Exp. 2) was −0.64 log10 (μM). For the same compound, the “Maximum Kill Percent” value (HCC1187; Exp. 2) was 100%, the “IC50 log10 (μM)” value (HCC1187; Exp. 4) was −0.98 log10 (μM) and the “Maximum Kill Percent” value (HCC1187; Exp. 4) was 88%. For the same compound, the “IC50 log10 (μM)” value (SUM149PT; Exp. 2, single agent) was 0.24 log10 (μM), the “Maximum Kill Percent” value (SUM149PT; Exp. 2, single agent) was 96% and the “IC50 log10 (μM)” value (SUM149PT; Exp. 3, single agent) was 0.27 log10 (μM). The “Maximum Kill Percent” value (SUM149PT; Exp. 3, single agent) was 95%, the Estimated tumor range (Estimated tumor range; (398)) was 3 to 163 nM and the Estimated tumor range (Estimated tumor range; IRI) was “IRI < 200 nM”. For the same compound, the plasma protein binding (human plasma proteins) was “approximately 95%”, the “SN-38 tumor concentration required to yield tumor response” value [5] was 120 nM and the “differential tissue levels at 24 and 72 hours” value ([6]; liver, spleen, colon, plasma versus tumors) was “cleared faster from the liver, spleen, colon, and plasma, than from tumors”. For the same compound, the “Active Range based on XTC008” value (cancer cells) was 1 to 50 nM.
With `Cn1ncnc1[C@H]1c2n[nH]c(=O)c3cc(F)cc(c23)N[C@@H]1c1ccc(F)cc1` [Talazoparib] the “Maximum Kill Percent” value (HCC1954; HCC1954, Exp. 4, single agent) was 100%, the IC50 (HCC1954; HCC1954, read-out: IC50 log10 (μM) (converted)) was 4370 µM and the IC50 (SUM159PT; read-out: IC50 log10 (μM) (converted)) was 0.0933 µM. For the same compound, the “Maximum Kill Percent” value (SUM159PT; SUM159PT, Exp. 4, single agent) was 94%, the “Maximum Kill Percent” value (HCC38; HCC38, Exp. 4, single agent) was 92% and the IC50 (HCC38; HCC38, read-out: IC50 log10 (μM) (converted)) was 0.0589 µM. The “Maximum Kill Percent” value (BT20; BT20, Exp. 4, single agent) was 100%, the IC50 (BT20; BT-20, read-out: IC50 log10 (μM) (converted)) was 28.2 µM and the IC50 (HCC1187; Homo sapiens, HCC1187, read-out: IC50 log10 (μM) (converted)) was 191 µM. For the same compound, the EC50 (PAR) was 0.0025 µM and the “inhibition of PARG” value (PARG) was “does not inhibit”.
In the case of `C[C@]1(c2nc3c(C(N)=O)cccc3[nH]2)CCCN1` [Veliparib], the “activity on SIRT2” value (SIRT2) is listed as “inactive”, the Estimated tumor range (Estimated tumor range) is listed as >2000 nM and the “effect of combination with SN-38” value [2] is listed as “Additive/synergistic effects”. The “effect of combination with SN-38” value [3] was “Additive/synergistic effects”, the “efficacy (tumor growth)” value [7] was “not efficacious” and the “efficacy (tumor growth)” value ([6]; MM-398 2 mg/kg weekly Day 1, veliparib 50 mg/kg orally Days 4-6, FIG. 7B) was “neither MM-398 or veliparib were efficacious as single agents”. The “growth inhibition of the cancer cells in combination with SN-38” value [4] was “additive/synergistic growth inhibition”, the “potency in the combination with SN-38” value ([4]; compared with olaparib and rucaparib) was “slightly less potent in the combination with SN-38 than olaparib and rucaparib” and the EC50 (PAR) was 0.0059 µM. The “Active Range based on XTC008” value (cancer cells) was 1000 to 10000 nM.
